Experiments:
Assay in all cases: relative viability (nuclei count vs DMSO), 5 days (fraction); higher = more cells survive
Calu-6 = system: Calu-6
Outline: (§1)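 Relative viability equals treated-well nuclei counts divided by vehicle-well nuclei counts. Counts came from 4× images of lung cancer cell lines grown in 1536-well plates for 5 days after pin-tool dosing on the day after seeding. Dosing used one drug alone or a fixed anchor-drug dose plus five library-drug doses (not always all listed) in √10 steps, and values are medians of duplicate plates.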

RERF-LC-KJ = system: RERF-LC-KJ
Outline: as §1

NCI-H2085 = system: NCI-H2085
Outline: as §1

EKVX = system: EKVX
Outline: as §1

EBC-1 = system: EBC-1
Outline: as §1

NCI-H1703 = system: NCI-H1703
Outline: as §1

NCI-H1299 = system: NCI-H1299
Outline: as §1

HCC-44 = system: HCC-44
Outline: as §1

A549 = system: A549
Outline: as §1

IA-LM = system: IA-LM
Outline: as §1

NCI-H2126 = system: NCI-H2126
Outline: as §1

NCI-H1993 = system: NCI-H1993
Outline: as §1

Molecule O=c1cc(N2CCOCC2)oc2c(-c3cccc4c3sc3ccccc34)cccc12 + CC1(C)CCC(c2ccc(Cl)cc2)=C(CN2CCN(c3ccc(C(=O)NS(=O)(=O)c4ccc(N[C@H](CCN5CCOCC5)CSc5ccccc5)c(S(=O)(=O)C(F)(F)F)c4)cc3)CC2)C1 [Navitoclax] (partner 0.5 µM) has a relative viability (Calu-6; first compound 0.01 µM) of 0.795, a relative viability (Calu-6; first compound 0.03162 µM) of 0.786 and a relative viability (Calu-6; first compound 0.1 µM) of 0.967. It also gave a relative viability (Calu-6; first compound 0.3162 µM) of 0.86, a relative viability (Calu-6; first compound 1 µM) of 0.933 and a relative viability (RERF-LC-KJ; first compound 0.01 µM) of 0.926. For the same molecule, the relative viability (RERF-LC-KJ; first compound 0.03162 µM) was 1.2, the relative viability (RERF-LC-KJ; first compound 0.1 µM) was 0.98 and the relative viability (RERF-LC-KJ; first compound 0.3162 µM) was 0.85. The relative viability (RERF-LC-KJ; first compound 1 µM) was 0.974, the relative viability (NCI-H2085; first compound 0.01 µM) was 1.08 and the relative viability (NCI-H2085; first compound 0.03162 µM) was 1.19. For the same molecule, the relative viability (NCI-H2085; first compound 0.1 µM) was 1.17, the relative viability (NCI-H2085; first compound 0.3162 µM) was 1.08 and the relative viability (NCI-H2085; first compound 1 µM) was 1.02. It also gave a relative viability (EKVX; first compound 0.01 µM) of 1.02, a relative viability (EKVX; first compound 0.03162 µM) of 0.903 and a relative viability (EKVX; first compound 0.1 µM) of 0.991. For the same molecule, the relative viability (EKVX; first compound 0.3162 µM) was 0.956, the relative viability (EKVX; first compound 1 µM) was 0.871 and the relative viability (EBC-1; first compound 0.01 µM) was 0.469. For the same molecule, the relative viability (EBC-1; first compound 0.03162 µM) was 0.377, the relative viability (EBC-1; first compound 0.1 µM) was 0.353 and the relative viability (EBC-1; first compound 0.3162 µM) was 0.408. For the same molecule, the relative viability (EBC-1; first compound 1 µM) was 0.406, the relative viability (NCI-H1703; first compound 0.01 µM) was 1.34 and the relative viability (NCI-H1703; first compound 0.03162 µM) was 1.28. It also gave a relative viability (NCI-H1703; first compound 0.1 µM) of 1.24, a relative viability (NCI-H1703; first compound 0.3162 µM) of 1.07 and a relative viability (NCI-H1703; first compound 1 µM) of 1.01. The relative viability (NCI-H1299; first compound 0.01 µM) was 1.02, the relative viability (NCI-H1299; first compound 0.03162 µM) was 1.06 and the relative viability (NCI-H1299; first compound 0.1 µM) was 1.08. It also gave a relative viability (NCI-H1299; first compound 0.3162 µM) of 1, a relative viability (NCI-H1299; first compound 1 µM) of 1.04 and a relative viability (HCC-44; first compound 0.01 µM) of 0.854. It also gave a relative viability (HCC-44; first compound 0.03162 µM) of 0.94, a relative viability (HCC-44; first compound 0.1 µM) of 0.963 and a relative viability (HCC-44; first compound 0.3162 µM) of 0.887. The relative viability (HCC-44; first compound 1 µM) was 0.931, the relative viability (A549; first compound 0.01 µM) was 1.22 and the relative viability (A549; first compound 0.03162 µM) was 1.17. It also gave a relative viability (A549; first compound 0.1 µM) of 1.28, a relative viability (A549; first compound 0.3162 µM) of 1.23 and a relative viability (A549; first compound 1 µM) of 1.2. The relative viability (IA-LM; first compound 0.01 µM) was 0.909, the relative viability (IA-LM; first compound 0.03162 µM) was 0.667 and the relative viability (IA-LM; first compound 0.1 µM) was 0.902. For the same molecule, the relative viability (IA-LM; first compound 0.3162 µM) was 0.561, the relative viability (IA-LM; first compound 1 µM) was 0.876 and the relative viability (NCI-H2126; first compound 0.01 µM) was 0.845. For the same molecule, the relative viability (NCI-H2126; first compound 0.03162 µM) was 0.839, the relative viability (NCI-H2126; first compound 0.1 µM) was 0.868 and the relative viability (NCI-H2126; first compound 0.3162 µM) was 0.889. For the same molecule, the relative viability (NCI-H2126; first compound 1 µM) was 0.794, the relative viability (NCI-H1993; first compound 0.01 µM) was 1.02 and the relative viability (NCI-H1993; first compound 0.03162 µM) was 0.953. It also gave a relative viability (NCI-H1993; first compound 0.1 µM) of 0.976, a relative viability (NCI-H1993; first compound 0.3162 µM) of 0.921 and a relative viability (NCI-H1993; first compound 1 µM) of 0.887.

CCN(CC)CCCCNc1ncc2cc(-c3cc(OC)cc(OC)c3)c(NC(=O)NC(C)(C)C)nc2n1 + CC1(C)CCC(c2ccc(Cl)cc2)=C(CN2CCN(c3ccc(C(=O)NS(=O)(=O)c4ccc(N[C@H](CCN5CCOCC5)CSc5ccccc5)c(S(=O)(=O)C(F)(F)F)c4)cc3)CC2)C1 [Navitoclax] (partner 0.5 µM) showed a relative viability (Calu-6; first compound 0.01 µM) of 0.729, a relative viability (Calu-6; first compound 0.03162 µM) of 0.946 and a relative viability (Calu-6; first compound 0.1 µM) of 1.03. For the same molecule, the relative viability (Calu-6; first compound 0.3162 µM) was 1.01, the relative viability (Calu-6; first compound 1 µM) was 0.748 and the relative viability (RERF-LC-KJ; first compound 0.01 µM) was 0.996. It also gave a relative viability (RERF-LC-KJ; first compound 0.03162 µM) of 0.851, a relative viability (RERF-LC-KJ; first compound 0.1 µM) of 0.925 and a relative viability (RERF-LC-KJ; first compound 0.3162 µM) of 1.09. The relative viability (RERF-LC-KJ; first compound 1 µM) was 0.997, the relative viability (NCI-H2085; first compound 0.01 µM) was 1.08 and the relative viability (NCI-H2085; first compound 0.03162 µM) was 1.22. The relative viability (NCI-H2085; first compound 0.1 µM) was 1.33, the relative viability (NCI-H2085; first compound 0.3162 µM) was 1.22 and the relative viability (NCI-H2085; first compound 1 µM) was 1.06. For the same molecule, the relative viability (EKVX; first compound 0.01 µM) was 0.946, the relative viability (EKVX; first compound 0.03162 µM) was 0.851 and the relative viability (EKVX; first compound 0.1 µM) was 1.01. For the same molecule, the relative viability (EKVX; first compound 0.3162 µM) was 1.04, the relative viability (EKVX; first compound 1 µM) was 0.968 and the relative viability (EBC-1; first compound 0.01 µM) was 0.339. The relative viability (EBC-1; first compound 0.03162 µM) was 0.469, the relative viability (EBC-1; first compound 0.1 µM) was 0.442 and the relative viability (EBC-1; first compound 0.3162 µM) was 0.357. It also gave a relative viability (EBC-1; first compound 1 µM) of 0.37, a relative viability (NCI-H1703; first compound 0.01 µM) of 1.07 and a relative viability (NCI-H1703; first compound 0.1 µM) of 1.04. It also gave a relative viability (NCI-H1703; first compound 0.3162 µM) of 1.32, a relative viability (NCI-H1703; first compound 1 µM) of 0.925 and a relative viability (NCI-H1299; first compound 0.01 µM) of 1.08. It also gave a relative viability (NCI-H1299; first compound 0.03162 µM) of 1.01, a relative viability (NCI-H1299; first compound 0.1 µM) of 1.08 and a relative viability (NCI-H1299; first compound 0.3162 µM) of 1.09. The relative viability (NCI-H1299; first compound 1 µM) was 1.01, the relative viability (HCC-44; first compound 0.01 µM) was 1.01 and the relative viability (HCC-44; first compound 0.03162 µM) was 0.997. For the same molecule, the relative viability (HCC-44; first compound 0.1 µM) was 1.02, the relative viability (HCC-44; first compound 0.3162 µM) was 1.1 and the relative viability (HCC-44; first compound 1 µM) was 0.937. The relative viability (A549; first compound 0.01 µM) was 1.16, the relative viability (A549; first compound 0.03162 µM) was 1.24 and the relative viability (A549; first compound 0.1 µM) was 1.53. It also gave a relative viability (A549; first compound 0.3162 µM) of 1.23, a relative viability (A549; first compound 1 µM) of 1.07 and a relative viability (IA-LM; first compound 0.01 µM) of 0.746. It also gave a relative viability (IA-LM; first compound 0.03162 µM) of 0.882, a relative viability (IA-LM; first compound 0.1 µM) of 0.969 and a relative viability (IA-LM; first compound 0.3162 µM) of 0.73. The relative viability (IA-LM; first compound 1 µM) was 0.866, the relative viability (NCI-H2126; first compound 0.01 µM) was 0.904 and the relative viability (NCI-H2126; first compound 0.03162 µM) was 0.845. The relative viability (NCI-H2126; first compound 0.1 µM) was 0.916, the relative viability (NCI-H2126; first compound 0.3162 µM) was 0.927 and the relative viability (NCI-H2126; first compound 1 µM) was 0.828. The relative viability (NCI-H1993; first compound 0.01 µM) was 0.904, the relative viability (NCI-H1993; first compound 0.03162 µM) was 0.954 and the relative viability (NCI-H1993; first compound 0.1 µM) was 0.963. For the same molecule, the relative viability (NCI-H1993; first compound 0.3162 µM) was 1.07 and the relative viability (NCI-H1993; first compound 1 µM) was 0.895.
